Experimental data as given in ChEMBL document CHEMBL1201862, “PubChem BioAssay data set” (2004).
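Assay format: 96-well plates, 48-hour exposure. Here, GI50 denotes the concentration required for 50% inhibition of growth.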 Calls of active or inactive are those of the source. No stated cut-off is given here; in the data, active = GI50 up to about 1.1 µM and inactive = higher.

Legend:
Test in all cases: NCI anticancer screen, dose series, 48 h
[1] = test system: HT-29
[2] = test system: HCT-116
[3] = test system: SW-620
[4] = test system: EKVX
[5] = test system: UACC-257
[6] = test system: Malme-3M
[7] = test system: IGROV-1
[8] = test system: SK-MEL-28
[9] = test system: A498
[10] = test system: SF-295
[11] = test system: CAKI-1
[12] = test system: COLO 205
[13] = test system: NCI-H522
[14] = test system: SK-MEL-5
[15] = test system: HCT-15
[16] = test system: OVCAR-4

Structure (SMILES) | GI50 [1] | GI50 [2] | GI50 [3] | GI50 [4] | GI50 [5] | GI50 [6] | GI50 [7] | GI50 [8] | GI50 [9] | GI50 [10] | GI50 [11] | GI50 [12] | GI50 [13] | GI50 [14] | GI50 [15] | GI50 [16]
Fc1ccccc1C1SCc2nc3ccccc3n21 (stereo not drawn) | > 100 µM (inactive) | 38.5 µM (inactive) | > 100 µM (inactive) | 37.5 µM (inactive) | 33.7 µM (inactive) | 55.3 µM (inactive) | 60.5 µM (inactive) | > 100 µM (inactive) | 9.62 µM (inactive) | 41.8 µM (inactive) | 44.8 µM (inactive) | 77.3 µM (inactive) | 28 µM (inactive) | 18.8 µM (inactive) |  | 
CC(=O)N1CCC2(c3ccccc3N(C(C)=O)C2c2ccc(O)cc2)C1C(=O)O (stereo not drawn) | > 100 µM (inactive) | > 100 µM (inactive) | > 100 µM (inactive) | > 100 µM (inactive) | > 100 µM (inactive) | > 100 µM (inactive) |  | > 100 µM (inactive) | > 100 µM (inactive) | > 100 µM (inactive) |  | > 100 µM (inactive) | > 100 µM (inactive) | > 100 µM (inactive) |  | 
CC1=CC=NN2C(=O)[C@H](C)C2C1 (stereo partly drawn) | > 100 µM (inactive) | > 100 µM (inactive) | > 100 µM (inactive) | > 100 µM (inactive) | > 100 µM (inactive) | > 100 µM (inactive) | > 100 µM (inactive) | > 100 µM (inactive) | > 100 µM (inactive) | > 100 µM (inactive) |  | > 100 µM (inactive) | > 100 µM (inactive) | > 100 µM (inactive) | > 100 µM | > 100 µM (inactive)
O=c1[nH]c(=O)n(C2CC(O)C(CO)O2)cc1/C=C/Br (stereo not drawn) | > 100 µM (inactive) |  | > 100 µM (inactive) | > 100 µM (inactive) | > 100 µM (inactive) | > 100 µM (inactive) | > 100 µM (inactive) | > 100 µM (inactive) | > 100 µM (inactive) | > 100 µM (inactive) | > 100 µM (inactive) |  | > 100 µM (inactive) | > 100 µM (inactive) |  | > 100 µM (inactive)
CC(SC(=O)Nc1ccc(/N=N/c2ccccc2)cc1)C(=O)O (stereo not drawn) | 68.4 µM (inactive) | > 100 µM (inactive) | > 100 µM (inactive) | > 100 µM (inactive) | 98.6 µM (inactive) |  | 24.3 µM (inactive) | > 100 µM (inactive) | > 100 µM (inactive) | 56.4 µM (inactive) | > 100 µM (inactive) | > 100 µM (inactive) | 68.4 µM (inactive) |  | > 100 µM | > 100 µM (inactive)
CC(C)(c1cn(Cc2ccccc2)c2ccccc12)c1cn(Cc2ccccc2)c2ccccc12 | > 100 µM (inactive) | > 100 µM (inactive) | > 100 µM (inactive) | > 100 µM (inactive) |  | 1.94 µM (inactive) | > 100 µM (inactive) |  |  | > 100 µM (inactive) | > 100 µM (inactive) | > 100 µM (inactive) | 76.9 µM (inactive) | > 100 µM (inactive) | > 100 µM | > 100 µM (inactive)
C/C(=N\NC(N)=S)c1ccc2c(c1)OCO2 | > 100 µM (inactive) | > 100 µM (inactive) | > 100 µM (inactive) | 13.9 µM (inactive) | 99.1 µM (inactive) | > 100 µM (inactive) | > 100 µM (inactive) | > 100 µM (inactive) | > 100 µM (inactive) | > 100 µM (inactive) | > 100 µM (inactive) | > 100 µM (inactive) | 32.4 µM (inactive) | > 100 µM (inactive) | > 100 µM | 
CSc1c(C)c(C)nn1-c1ccccc1 | > 100 µM (inactive) |  | > 100 µM (inactive) | > 100 µM (inactive) | > 100 µM (inactive) | > 100 µM (inactive) | > 100 µM (inactive) | > 100 µM (inactive) | > 100 µM (inactive) | > 100 µM (inactive) | > 100 µM (inactive) | > 100 µM (inactive) | > 100 µM (inactive) | > 100 µM (inactive) | > 100 µM | > 100 µM (inactive)
CN(C)c1ccc(/C=c2/sc3nc(=O)c(-c4ccccc4NC(=O)C(F)(F)F)nn3c2=O)cc1 | > 100 µM (inactive) |  | > 100 µM (inactive) | > 100 µM (inactive) |  | > 100 µM (inactive) | > 100 µM (inactive) | > 100 µM (inactive) |  | > 100 µM (inactive) | > 100 µM (inactive) | 98.6 µM (inactive) | > 100 µM (inactive) | > 100 µM (inactive) |  | > 100 µM (inactive)
CNCCCCN(C)/[N+]([O-])=N\O | > 100 µM (inactive) | > 100 µM (inactive) | > 100 µM (inactive) | > 100 µM (inactive) | > 100 µM (inactive) | > 100 µM (inactive) | > 100 µM (inactive) | > 100 µM (inactive) |  | > 100 µM (inactive) | > 100 µM (inactive) | > 100 µM (inactive) | > 100 µM (inactive) | > 100 µM (inactive) | > 100 µM | > 100 µM (inactive)
